Data reported in patent publication US8415469B2, “Compounds and methods for kinase modulation, and indications therefor” (Plexxikon Inc., priority 2005, dated 2013).

Legend:
Type in all cases: biochemical
B-Raf V600E = molecular target: T1, B-Raf V600E (Homo sapiens, UniProt P15056, V600E); assay: AlphaScreen kinase assay, B-Raf V600E; conditions: read-out: IC50, activity toward kinase B-Raf V600E
T1 construct: P4254. pFastBacBD-CDC37 BRAF D437-K722-X, V600E; His6 with pFastBac HT leader (TEV site) (N); made in house; host or cells: Sf9 (baculovirus; chaperone CDC37 co-expressed)

Ret = molecular target: T2, Ret (Homo sapiens, UniProt P07949); assay: AlphaScreen kinase assay, Ret; conditions: read-out: IC50, activity toward kinase Ret
T2 construct: P1378.pET-SF BI-PTP RET H661-R1012 HIS; made in house
T2 sequence (P07949 with tags, fused parts or gaps): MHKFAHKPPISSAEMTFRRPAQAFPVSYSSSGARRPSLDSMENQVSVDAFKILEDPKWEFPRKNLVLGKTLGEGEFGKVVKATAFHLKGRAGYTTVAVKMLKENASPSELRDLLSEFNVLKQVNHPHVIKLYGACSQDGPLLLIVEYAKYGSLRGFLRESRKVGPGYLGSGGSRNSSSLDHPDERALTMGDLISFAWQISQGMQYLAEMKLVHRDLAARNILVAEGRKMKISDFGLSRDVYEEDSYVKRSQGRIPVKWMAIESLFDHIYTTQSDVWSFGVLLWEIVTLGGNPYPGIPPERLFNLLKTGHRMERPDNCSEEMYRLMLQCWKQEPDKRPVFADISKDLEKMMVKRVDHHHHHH

FGFR1 = molecular target: T3, FGFR1 (Homo sapiens, UniProt P11362, C488A/C584S); assay: AlphaScreen kinase assay, FGFR1; conditions: read-out: IC50, activity toward kinase FGFR
T3 construct: P1351.pET N6 BI-PTP FGFR A458-E765-X C488A, C584S; made in house; host or cells: E. coli (PTP1B co-expressed)

Flt1 = molecular target: T4, Flt1 (Homo sapiens, UniProt P17948); assay: AlphaScreen kinase assay, Flt1; conditions: read-out: IC50, activity toward kinase Flt1
T4 construct: P1826.pETN6 BI-PTP FLT1 M799-D1165-X WT; His6 (N); made in house; host or cells: E. coli (PTP1B co-expressed)
T4 sequence (P17948 with tags, fused parts or gaps): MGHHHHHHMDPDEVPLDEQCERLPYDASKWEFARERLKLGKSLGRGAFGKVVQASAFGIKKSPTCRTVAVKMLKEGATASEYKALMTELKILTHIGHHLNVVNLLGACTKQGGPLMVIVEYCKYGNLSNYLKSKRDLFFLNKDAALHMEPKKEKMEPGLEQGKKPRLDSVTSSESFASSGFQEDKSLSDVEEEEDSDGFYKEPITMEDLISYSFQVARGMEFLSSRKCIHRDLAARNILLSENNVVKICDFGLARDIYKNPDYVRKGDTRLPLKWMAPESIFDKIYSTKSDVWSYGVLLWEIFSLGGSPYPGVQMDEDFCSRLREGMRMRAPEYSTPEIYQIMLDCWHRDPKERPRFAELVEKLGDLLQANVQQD

Kit = molecular target: T5, Kit (Homo sapiens, UniProt P10721); assay: AlphaScreen kinase assay, Kit; conditions: read-out: IC50, activity toward kinase Kit
T5 construct: P1332.N6 BI PTP KIT M552-K948-X COD; His6 (N); made in house; host or cells: E. coli (PTP1B co-expressed)

Fms = molecular target: T6, Fms (Homo sapiens, UniProt P07333); assay: AlphaScreen kinase assay, Fms; conditions: read-out: IC50, activity toward kinase Fms
T6 construct: purchased Upstate Biotechnology
T6 sequence (P07333 20-972): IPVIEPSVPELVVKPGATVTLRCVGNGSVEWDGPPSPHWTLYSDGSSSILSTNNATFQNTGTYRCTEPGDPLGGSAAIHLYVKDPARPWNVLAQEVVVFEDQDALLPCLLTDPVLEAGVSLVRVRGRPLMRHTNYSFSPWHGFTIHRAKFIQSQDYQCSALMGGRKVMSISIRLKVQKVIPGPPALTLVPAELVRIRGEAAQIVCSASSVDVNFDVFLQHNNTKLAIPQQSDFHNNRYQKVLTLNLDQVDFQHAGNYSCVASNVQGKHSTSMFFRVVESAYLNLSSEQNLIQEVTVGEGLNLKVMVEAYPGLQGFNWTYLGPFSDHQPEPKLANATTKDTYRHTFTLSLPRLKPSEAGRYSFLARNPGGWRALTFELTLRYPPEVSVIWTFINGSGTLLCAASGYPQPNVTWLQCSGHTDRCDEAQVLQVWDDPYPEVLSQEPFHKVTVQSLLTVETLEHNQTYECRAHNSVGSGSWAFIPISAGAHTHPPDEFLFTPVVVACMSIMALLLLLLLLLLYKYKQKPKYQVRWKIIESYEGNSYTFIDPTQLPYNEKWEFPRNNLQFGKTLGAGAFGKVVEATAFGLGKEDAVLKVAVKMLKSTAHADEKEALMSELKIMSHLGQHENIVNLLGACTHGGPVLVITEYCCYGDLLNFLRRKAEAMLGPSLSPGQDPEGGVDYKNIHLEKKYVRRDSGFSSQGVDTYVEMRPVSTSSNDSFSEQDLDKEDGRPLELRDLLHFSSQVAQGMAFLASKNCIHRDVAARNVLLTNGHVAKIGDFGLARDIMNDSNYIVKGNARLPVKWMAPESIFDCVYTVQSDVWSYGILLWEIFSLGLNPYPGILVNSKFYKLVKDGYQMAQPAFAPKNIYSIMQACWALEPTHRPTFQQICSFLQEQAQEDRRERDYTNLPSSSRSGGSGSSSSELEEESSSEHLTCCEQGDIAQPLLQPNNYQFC

T3 sequence (P11362 458-765 C488A/C584S): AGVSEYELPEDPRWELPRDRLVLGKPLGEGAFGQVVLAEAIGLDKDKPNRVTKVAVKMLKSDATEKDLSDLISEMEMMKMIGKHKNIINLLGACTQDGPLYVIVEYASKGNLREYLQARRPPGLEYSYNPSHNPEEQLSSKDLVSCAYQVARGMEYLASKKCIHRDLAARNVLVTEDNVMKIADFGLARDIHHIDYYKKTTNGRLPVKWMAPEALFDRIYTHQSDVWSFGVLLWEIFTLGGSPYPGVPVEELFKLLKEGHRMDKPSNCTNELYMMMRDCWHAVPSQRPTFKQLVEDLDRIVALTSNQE
T1 sequence (P15056 with tags, fused parts or gaps V600E): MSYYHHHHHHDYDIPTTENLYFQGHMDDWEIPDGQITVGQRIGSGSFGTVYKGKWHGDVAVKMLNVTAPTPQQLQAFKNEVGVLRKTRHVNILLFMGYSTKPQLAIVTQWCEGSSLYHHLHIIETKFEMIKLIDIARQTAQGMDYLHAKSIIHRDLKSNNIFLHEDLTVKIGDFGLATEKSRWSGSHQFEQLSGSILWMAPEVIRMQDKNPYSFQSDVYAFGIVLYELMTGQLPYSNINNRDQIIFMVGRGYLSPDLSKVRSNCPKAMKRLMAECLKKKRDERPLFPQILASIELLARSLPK
T5 sequence (P10721 with tags, fused parts or gaps): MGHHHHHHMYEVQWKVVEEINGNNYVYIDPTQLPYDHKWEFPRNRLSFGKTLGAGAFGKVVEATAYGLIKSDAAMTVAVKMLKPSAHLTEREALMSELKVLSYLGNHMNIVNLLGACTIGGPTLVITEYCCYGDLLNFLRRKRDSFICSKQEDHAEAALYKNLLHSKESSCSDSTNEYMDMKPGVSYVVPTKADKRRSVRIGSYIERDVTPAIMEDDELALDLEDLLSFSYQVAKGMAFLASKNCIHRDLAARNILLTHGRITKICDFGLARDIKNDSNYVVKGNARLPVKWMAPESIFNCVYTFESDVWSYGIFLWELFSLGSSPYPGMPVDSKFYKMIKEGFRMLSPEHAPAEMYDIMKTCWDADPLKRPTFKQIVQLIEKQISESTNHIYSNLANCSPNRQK

Row | IC50 (B-Raf V600E) | IC50 (Ret) | IC50 (FGFR1) | IC50 (Flt1) | IC50 (Kit) | IC50 (Fms) | Structure (SMILES)
1 | ≤ 10 µM | ≤ 10 µM | – | – | – | – | Cc1cc(C(=O)c2c[nH]c3nccc(-c4ccsc4)c23)no1 [Compound P-1026]
2 | ≤ 10 µM | ≤ 10 µM | – | – | – | – | Cc1cc(C(=O)c2c[nH]c3nccc(-c4cccnc4)c23)no1 [Compound P-1029]
3 | – | ≤ 10 µM | ≤ 10 µM | – | – | – | COc1ccc(-c2ccnc3[nH]cc(C(=O)c4cccc(O)c4)c23)cn1 [Compound P-0520]
4 | – | ≤ 10 µM | ≤ 10 µM | – | ≤ 10 µM | – | O=C(c1ccccc1)c1c[nH]c2ncc(Br)cc12 [Compound P-0561]
5 | – | ≤ 10 µM | ≤ 10 µM | – | ≤ 10 µM | ≤ 10 µM | c1cc(Cc2c[nH]c3ncc(-c4ccsc4)cc23)cc(OCCOC2CCCCO2)c1 (centres unmarked) [Compound P-0835]
6 | ≤ 10 µM | – | – | ≤ 10 µM | – | – | O=S(=O)(NCc1c[nH]c2ncccc12)c1cc(Cl)sc1Cl [Compound P-0603]
7 | ≤ 10 µM | ≤ 10 µM | – | – | – | – | O=C(c1cccc(Cl)c1Cl)c1c[nH]c2nccc(-c3ccsc3)c12 [Compound P-0347]
8 | ≤ 10 µM | ≤ 10 µM | ≤ 10 µM | – | – | – | Cc1ccc(F)cc1C(=O)c1c[nH]c2nccc(-c3cccc(C(N)=O)c3)c12 [Compound P-0976]
9 | ≤ 10 µM | ≤ 10 µM | – | – | – | – | O=C(c1ccccc1F)c1c[nH]c2nccc(-c3ccc(Cl)cc3)c12 [Compound P-0472]
10 | – | – | – | ≤ 10 µM | – | – | COC(=O)Nc1cccc(C(=O)c2c[nH]c3ncc(Cl)cc23)c1 [Compound P-1619]
11 | ≤ 10 µM | ≤ 10 µM | ≤ 10 µM | – | – | – | O=C(c1ccccc1)c1c[nH]c2nccc([N+](=O)[O-])c12 [Compound P-0246]
12 | – | ≤ 10 µM | – | – | ≤ 10 µM | – | O=C(c1ccccc1)c1c[nH]c2ncc(Br)c([N+](=O)[O-])c12 [Compound P-0736]
13 | – | ≤ 10 µM | – | – | ≤ 10 µM | – | Cc1cc(C(=O)c2c[nH]c3ncc(-c4cccc(NS(C)(=O)=O)c4)cc23)n(C)n1 [Compound P-0825]
14 | ≤ 10 µM | ≤ 10 µM | – | – | – | – | COc1ccc(-c2ccnc3[nH]cc(C(=O)c4cc(C)on4)c23)cn1 [Compound P-1113]
15 | – | ≤ 10 µM | ≤ 10 µM | – | ≤ 10 µM | – | COc1cccc(Cc2c[nH]c3ncc(-c4ccsc4)cc23)c1 [Compound P-0392]

The remaining lines, values behind:

Row | Structure (SMILES) | IC50 (B-Raf V600E) | IC50 (Ret) | IC50 (FGFR1) | IC50 (Flt1) | IC50 (Kit) | IC50 (Fms)
16 | CS(=O)(=O)Nc1ccc(F)c(Cc2c[nH]c3ncccc23)c1F [Compound P-1603, N-[2,4-Difluoro-3-(1H-pyrrolo[2,3-b]pyridin-3-ylmethyl)-phenyl]-methanesulfonamide] | – | – | ≤ 10 µM | ≤ 10 µM | – | –
17 | Cc1cc(C(=O)c2c[nH]c3nccc(-c4cccc(S(C)(=O)=O)c4)c23)no1 [Compound P-1031] | ≤ 10 µM | ≤ 10 µM | – | – | – | –
18 | COc1cccc(C(=O)c2c[nH]c3nccc(-c4cccc(/C=C/C(=O)O)c4)c23)c1 [Compound P-1066] | – | ≤ 10 µM | ≤ 10 µM | – | – | –
19 | O=C(c1cc(F)ccc1F)c1c[nH]c2ncc(-c3ccsc3)cc12 [Compound P-0699] | – | ≤ 10 µM | ≤ 10 µM | – | ≤ 10 µM | –
20 | Cc1cc(C(=O)c2c[nH]c3nccc(-c4ccc(C(N)=O)cc4)c23)no1 [Compound P-1007] | ≤ 10 µM | ≤ 10 µM | – | – | – | –
21 | Cc1cc(C(=O)c2c[nH]c3nccc(-c4cccc(NS(C)(=O)=O)c4)c23)no1 [Compound P-1025] | ≤ 10 µM | ≤ 10 µM | – | – | – | –
22 | O=C(NCC(F)(F)F)Nc1ccc(F)c(Cc2c[nH]c3ncc(Cl)cc23)c1F [Compound P-1601, 1-[3-(5-Chloro-1H-pyrrolo[2,3-b]pyridin-3-ylmethyl)-2,4-difluoro-phenyl]-3-(2,2,2-trifluoro-ethyl)-urea] | ≤ 10 µM | – | – | ≤ 10 µM | – | –
23 | CCCn1cccc1C(c1c[nH]c2ncc(-c3cccnc3)cc12)n1ccc2cc(-c3cccnc3)cnc21 (centres unmarked) [Compound P-1686] | – | – | – | ≤ 10 µM | – | –
24 | CS(=O)(=O)Nc1cccc(-c2ccnc3[nH]cc(C(=O)c4cccc(Cl)c4Cl)c23)c1 [Compound P-0231] | ≤ 10 µM | ≤ 10 µM | – | – | – | –
25 | O=C(c1ccc(Cl)cc1)c1c[nH]c2ncc(Br)cc12 [Compound P-1033] | – | ≤ 10 µM | – | – | ≤ 10 µM | –
26 | Cc1ccccc1S(=O)(=O)NCc1c[nH]c2ncccc12 [Compound P-0768] | – | – | – | ≤ 10 µM | – | –
27 | COc1cccc(C(=O)c2c[nH]c3ncc(Br)cc23)c1 [Compound P-0341] | – | ≤ 10 µM | ≤ 10 µM | – | ≤ 10 µM | –
28 | Clc1ccc(Cc2c[nH]c3ncc(-c4ccsc4)cc23)cn1 [Compound P-0385] | – | ≤ 10 µM | ≤ 10 µM | – | ≤ 10 µM | –
29 | COc1cccc(C(=O)c2c[nH]c3nccc(-c4cccc(NC(C)=O)c4)c23)c1 [Compound P-0363] | – | ≤ 10 µM | ≤ 10 µM | – | – | –
30 | Fc1ccc(-c2c[nH]c3ncccc23)c(F)c1 [Compound P-0470] | – | – | – | ≤ 10 µM | – | –
31 | COc1ccc(C(=O)c2c[nH]c3ncc(-c4cccs4)cc23)c(Cl)c1 [Compound P-0248] | ≤ 10 µM | ≤ 10 µM | ≤ 10 µM | – | ≤ 10 µM | –
32 | COc1cccc(Cc2c[nH]c3nccc(-c4ccsc4)c23)n1 [Compound P-0810] | ≤ 10 µM | ≤ 10 µM | – | – | ≤ 10 µM | –

Row | Structure (SMILES) | IC50 (B-Raf V600E) | IC50 (Ret) | IC50 (FGFR1) | IC50 (Flt1) | IC50 (Kit) | IC50 (Fms)
33 | COc1cccc(C(=O)c2c[nH]c3nccc(-c4cccnc4)c23)c1 [Compound P-1117] | ≤ 10 µM | ≤ 10 µM | – | – | – | –
34 | COc1cccc(C(=O)c2c[nH]c3nccc(-c4cccc(S(C)(=O)=O)c4)c23)c1 [Compound P-1125] | – | ≤ 10 µM | ≤ 10 µM | – | – | –
35 | Cc1cc(C(=O)c2c[nH]c3ncc(-c4cccnc4)cc23)no1 [Compound P-0826] | – | ≤ 10 µM | ≤ 10 µM | – | – | –
36 | O=C(c1c(F)cccc1F)c1c[nH]c2nccc(-c3cc(F)cc(F)c3)c12 [Compound P-0344] | ≤ 10 µM | ≤ 10 µM | ≤ 10 µM | – | – | –
37 | COc1cccc(C(=O)c2c[nH]c3nccc(-c4ccsc4)c23)c1 [Compound P-1188] | – | ≤ 10 µM | ≤ 10 µM | – | – | –
38 | CCOc1ccccc1C(O)c1c[nH]c2ncc(-c3cccnc3)cc12 (centres unmarked) [Compound P-1533] | – | – | – | ≤ 10 µM | – | –
39 | O=C(c1cc(Cl)ccc1F)c1c[nH]c2ncc(-c3cccs3)cc12 [Compound P-0644] | – | ≤ 10 µM | – | – | ≤ 10 µM | –
40 | Cc1ccc(F)cc1C(=O)c1c[nH]c2nccc(-c3ccc(C(N)=O)cc3)c12 [Compound P-1024] | ≤ 10 µM | ≤ 10 µM | – | – | – | –
41 | O=C(c1cc(F)ccc1F)c1c[nH]c2ncc(-c3cccnc3)cc12 [Compound P-1111] | – | ≤ 10 µM | ≤ 10 µM | – | – | –
42 | NC(=O)c1ccc(-c2cnc3[nH]cc(C(=O)c4cccc(Cl)c4Cl)c3c2)cc1 [Compound P-0977] | – | ≤ 10 µM | ≤ 10 µM | – | – | –
43 | O=C(c1cc(F)ccc1F)c1c[nH]c2nccc(-c3ccc(Cl)cc3)c12 [Compound P-0638] | ≤ 10 µM | ≤ 10 µM | – | – | – | –
44 | O=C(c1cccc(Cl)c1Cl)c1c[nH]c2nccc(Cl)c12 [Compound P-0232] | – | ≤ 10 µM | ≤ 10 µM | – | – | –
45 | CC(=O)Nc1cccc(-c2ccnc3[nH]cc(C(=O)c4cc(C)on4)c23)c1 [Compound P-1085] | ≤ 10 µM | ≤ 10 µM | – | – | – | –
46 | c1ccc(C(CNCc2c[nH]c3ncccc23)c2ccccc2)cc1 [Compound P-0514] | – | – | – | ≤ 10 µM | – | –
47 | COc1ccc(-c2ccnc3[nH]cc(C(=O)c4cc(F)ccc4C)c23)cn1 [Compound P-1192] | – | ≤ 10 µM | – | – | – | –
48 | COc1cccc(C(=O)c2c[nH]c3nccc(-c4ccc(Cl)cc4)c23)c1 [Compound P-1191] | – | ≤ 10 µM | – | – | – | –
